Source: patent US20250222011A1, “DRUG TARGET FOR INHIBITING TUMOR, USE, AND ORAL DRUG” (CHI BIOTECH CO., LTD., priority 2024, published 2025)

Tests used:
Format in all cases: cell-based
polyribosomes = test: Polysome profiling (cell translation initiation efficiency); conditions: 1 mg/mL, FIG. 5
Procedure: Polysome profiling: cells were plated in a 75 T flask with 2 million cells per flask and allowed to adhere for 24 h, and the ACTA was added to the experimental group to make a concentration of the working solution at 1 mg/mL. The control group was replaced with a new medium. Samples were collected after 24 h and 48 h of ATCA treatment. The medium was aspirated, the samples were washed twice with PBS, and 2 mL of Lysis Buffer (RB Buffer, 1% Ttiton X-100, and 10 μg/μL cycloheximide) was added to allow lysis for 30 min on ice, and a resulting lysate was pipetted into an RNase-free EP tube. […] After centrifugation for 4 h and 10 min at 4° C. and 25,400 rpm, high-performance liquid chromatography (HPLC) was conducted to allow relative quantitative analysis of polyribosomes, monoribosomes, and large and small subunits of ribosomes.

HER2 = test: Western blotting of HER2 expression after ATCA treatment; conditions: FIG. 4
SOX2 = test: Western blotting of SOX2 expression after ATCA treatment; conditions: FIG. 4

## O=C(O)C1=CC(=C(c2ccc(O)c(C(=O)O)c2)c2ccc(O)c(C(=O)O)c2)C=CC1=O [ATCA, aurintricarboxylic acid]
polyribosomes; 24 h after adding the drug
  polysome distribution curve: did not change much
polyribosomes; 48 h after adding the drug
  polyribosome fraction: significantly reduced
polyribosomes
  translation elongation: did not affect translation elongation
HER2
  HER2 expression: downregulation
SOX2
  SOX2 expression: downregulation
